Assay results from patent US11331289B2, “Antimicrobial composition” (priority 2017, dated 2022).
Like-named read-outs stand apart in the source and are kept apart here.

Assays:
[1] = system: S. pseudointermedius n°15 401; assay: Time-killing curve, broth macrodilution; type: cell-based, Staphylococcus pseudintermedius
Protocol: (§1) The time-killing curve is used to determine the bactericidal or bacteriostatic activity of the antibimicrobial substances. Time-killing curves of Oxyclozanide against canine isolates of Staphylococcus aureus and Staphylococcus pseudintermedius were obtained using broth macrodilution method. After contact of different fixed amounts of Oxyclozanide with an inoculum, viable bacteria are counted immediately after contact and after 1, 3, 6 and 24 hours. Counting is performed on agar medium without antimicrobial substance.
(§2) Results are analyzed by plotting log10 CFU/ml versus time for each tested concentration. Bactericidal activity as defined by 99.9% killing of the inoculum is determined from time-killing curves by noting the presence of a ≥3 log10 decrease in CFU/ml.
(§3) Bacterial strains were sub-cultured twice from one cryobead on Mueller Hinton agar and incubated at 37° C. for 18-24 hours. From the second subcultures, isolated colonies were transferred into tubes containing 2 ml of Mueller Hinton Broth in order to obtain bacterial suspensions at 10^8 CFU/ml, knowing that an optical density of 0.1 at 620 nm corresponds to bacterial suspension at 10^8 CFU/ml. Then, bacterial suspensions were adjusted between 5 10^7 and 1 10^8 CFU/ml by dilution in Mueller Hinton broth.
(§4) For each concentration of Oxyclozanide to be tested, 50 μl of working solution concentrated 100× and […] of inoculum were added to 5 ml of Mueller-Hinton broth. Thus, the range of tested concentrations was from 0.125 to 8 μg/ml and the concentration of micro-organism was between 1 10^6 and 2 10^6 CFU/ml.
(§5) At the same time, a tube without Oxyclozanide was prepared: 50 μl of DMSO and 100 μl of inoculum were added to 5 ml of Mueller-Hinton broth and used as growth control. Tubes were incubated at 36° C. under agitation.
(§6) The numbers of viable bacteria were determined immediately after contact (TO) and after 1, 3, 6 and 24 h of incubation.
(§7) At each time, samples of each tube were taken and dilutions were performed in Mueller-Hinton broth. Then, dilutions were spread on Mueller Hinton agar with spiral plater. After 18 h of incubation at 36° C., counting of colonies was performed with automatic colony counter which determine the concentrations of viable bacteria. The technique employed made it possible to quantify bacterial concentrations as low as 20 CFU/ml.
(§8) Time-killing curves were plotted for each concentration of Oxyclozanide using Microsoft Excel software. The number or surviving bacteria was expressed as log10 CFU/ml. The time-killing curves of each strain represent the decrease in the viable bacteria count as a function of time for the Oxyclozanide concentrations concerned.
(§9) Bactericidal activity as defined by 99.9% killing of the inoculum is determined from time-killing curves by noting the presence of a ≥3 log10 decrease in CFU/ml.

[2] = system: S. pseudointermedius n°15 410; assay: Time-killing curve, broth macrodilution; type: cell-based, Staphylococcus pseudintermedius
Protocol: as §1, §2, §3, §4, §5, §6, §7, §8, §9

[3] = system: Staphylococcus aureus no 16302 and no 16315; assay: MIC of Oxyclozanide, broth microdilution method; type: cell-based
Protocol: (§10) In this study, 2 Staphylococcus aureus and 2 Staphylococcus pseudintermedius were tested. These strains were chosen after determination of the Minimum Inhibitory Concentration (MIC) of Oxyclozanide using broth microdilution method.

[4] = system: Staphylococcus pseudintermedius no 15401 and no 15410; assay: MIC of Oxyclozanide, broth microdilution method; type: cell-based
Protocol: as §10

[5] = system: Methicillin-Resistant Staphylococcus pseudintermedius (MRSP); assay: Time-killing curves, conclusion over strains and inocula; type: cell-based; conditions: two inocula, two strains
Description: (§11) The objective of this study is to assess in vitro the time-killing curves of oxyclozanide against four strains of Methicillin-Resistant Staphylococcus from dogs.
(§12) Two Methicillin-Resistant Staphylococcus aureus (MRSA) and two Methicillin-Resistant Staphylococcus pseudintermedius (MRSP) isolated from the clinics have been tested.
(§13) The assessment of time-killing curves has been realized by a broth macrodilution method (Mueller-Hinton II Broth).

[6] = system: Methicillin-Resistant Staphylococcus aureus (MRSA); assay: as above; type: cell-based; conditions: two inocula, two strains
Description: as §11, §12, §13

## O=C(Nc1cc(Cl)cc(Cl)c1O)c1c(O)c(Cl)cc(Cl)c1Cl [Oxyclozanide]
[1]; 0.125 μg/ml (MIC), 0 h
  Viable bacteria count: 5.9 Log10 CFU/ml
[1]; 0.125 μg/ml (MIC), 1 h
  Bacteria reducing rate: 0.3 Δ log10 CFU/ml
[1]; 0.125 μg/ml (MIC), 3 h
  Bacteria reducing rate: 1.2 Δ log10 CFU/ml
[1]; 0.125 μg/ml (MIC), 6 h
  Bacteria reducing rate: 2.2 Δ log10 CFU/ml
[1]; 0.125 μg/ml (MIC), 24 h
  Bacteria reducing rate: 2.8 Δ log10 CFU/ml
  Viable bacteria count: 8.7 Log10 CFU/ml
[1]; 0.25 μg/ml (2 MIC), 0 h
  Viable bacteria count: 6.0 Log10 CFU/ml
[1]; 0.25 μg/ml (2 MIC), 1 h
  Bacteria reducing rate: 0.1 Δ log10 CFU/ml
[1]; 0.25 μg/ml (2 MIC), 3 h
  Bacteria reducing rate: 0.8 Δ log10 CFU/ml
  Viable bacteria count: 6.8 Log10 CFU/ml
[1]; 0.25 μg/ml (2 MIC), 6 h
  Bacteria reducing rate: 2.2 Δ log10 CFU/ml
[1]; 0.25 μg/ml (2 MIC), 24 h
  Bacteria reducing rate: 1.3 Δ log10 CFU/ml
[1]; 0.5 μg/ml (4 MIC), 0 h
  Viable bacteria count: 6.0 Log10 CFU/ml
[1]; 0.5 μg/ml (4 MIC), 1 h
  Bacteria reducing rate: 0.1 Δ log10 CFU/ml
[1]; 0.5 μg/ml (4 MIC), 3 h
  Bacteria reducing rate: 0.4 Δ log10 CFU/ml
[1]; 0.5 μg/ml (4 MIC), 6 h
  Bacteria reducing rate: 1.6 Δ log10 CFU/ml
[1]; 0.5 μg/ml (4 MIC), 24 h
  Bacteria reducing rate: 1.4 Δ log10 CFU/ml
[1]; 1 μg/ml (8 MIC), 0 h
  Viable bacteria count: 6.0 Log10 CFU/ml
[1]; 1 μg/ml (8 MIC), 1 h
  Bacteria reducing rate: 0.1 Δ log10 CFU/ml
[1]; 1 μg/ml (8 MIC), 3 h
  Bacteria reducing rate: 0.0 Δ log10 CFU/ml
  Viable bacteria count: 6.0 Log10 CFU/ml
[1]; 1 μg/ml (8 MIC), 6 h
  Bacteria reducing rate: 0.2 Δ log10 CFU/ml
[1]; 1 μg/ml (8 MIC), 24 h
  Bacteria reducing rate: 0.7 Δ log10 CFU/ml
  Viable bacteria count: 6.7 Log10 CFU/ml
[1]; 2 μg/ml (16 MIC), 0 h
  Viable bacteria count: 6.0 Log10 CFU/ml
[1]; 2 μg/ml (16 MIC), 1 h
  Bacteria reducing rate: −0.1 Δ log10 CFU/ml
  Viable bacteria count: 5.9 Log10 CFU/ml
[1]; 2 μg/ml (16 MIC), 3 h
  Bacteria reducing rate: −0.1 Δ log10 CFU/ml
  Viable bacteria count: 5.9 Log10 CFU/ml
[1]; 2 μg/ml (16 MIC), 6 h
  Bacteria reducing rate: 0.3 Δ log10 CFU/ml
[1]; 2 μg/ml (16 MIC), 24 h
  Bacteria reducing rate: −0.1 Δ log10 CFU/ml
  Viable bacteria count: 5.9 Log10 CFU/ml
[1]; 4 μg/ml (32 MIC), 0 h
  Viable bacteria count: 5.9 Log10 CFU/ml
[1]; 4 μg/ml (32 MIC), 1 h
  Bacteria reducing rate: 0.1 Δ log10 CFU/ml
  Viable bacteria count: 6.0 Log10 CFU/ml
[1]; 4 μg/ml (32 MIC), 3 h
  Bacteria reducing rate: 0.0 Δ log10 CFU/ml
  Viable bacteria count: 5.9 Log10 CFU/ml
[1]; 4 μg/ml (32 MIC), 6 h
  Bacteria reducing rate: −0.7 Δ log10 CFU/ml
[1]; 4 μg/ml (32 MIC), 24 h
  Bacteria reducing rate: −3.4 Δ log10 CFU/ml
  Viable bacteria count: 2.5 Log10 CFU/ml
[1]; 8 μg/ml (64 MIC), 0 h
  Viable bacteria count: 6.0 Log10 CFU/ml
[1]; 8 μg/ml (64 MIC), 1 h
  Bacteria reducing rate: −0.4 Δ log10 CFU/ml
  Viable bacteria count: 5.6 Log10 CFU/ml
[1]; 8 μg/ml (64 MIC), 3 h
  Bacteria reducing rate: −2.7 Δ log10 CFU/ml
  Viable bacteria count: 3.3 Log10 CFU/ml
[1]; 8 μg/ml (64 MIC), 6 h
  Bacteria reducing rate: −4.4 Δ log10 CFU/ml
[1]; 8 μg/ml (64 MIC), 24 h
  Bacteria reducing rate: −4.7 Δ log10 CFU/ml
[2]; 0.125 μg/ml (MIC), 1 h
  Bacteria reducing rate: 0.2 Δ log10 CFU/ml
[2]; 0.125 μg/ml (MIC), 3 h
  Bacteria reducing rate: 1.1 Δ log10 CFU/ml
[2]; 0.125 μg/ml (MIC), 6 h
  Bacteria reducing rate: 2.3 Δ log10 CFU/ml
[2]; 0.125 μg/ml (MIC), 24 h
  Bacteria reducing rate: 2.9 Δ log10 CFU/ml
[2]; 0.25 μg/ml (2 MIC), 1 h
  Bacteria reducing rate: 0.1 Δ log10 CFU/ml
[2]; 0.25 μg/ml (2 MIC), 3 h
  Bacteria reducing rate: 1.1 Δ log10 CFU/ml
[2]; 0.25 μg/ml (2 MIC), 6 h
  Bacteria reducing rate: 2.3 Δ log10 CFU/ml
[2]; 0.25 μg/ml (2 MIC), 24 h
  Bacteria reducing rate: 1.1 Δ log10 CFU/ml
[2]; 0.5 μg/ml (4 MIC), 1 h
  Bacteria reducing rate: 0.1 Δ log10 CFU/ml
[2]; 0.5 μg/ml (4 MIC), 3 h
  Bacteria reducing rate: 1.1 Δ log10 CFU/ml
[2]; 0.5 μg/ml (4 MIC), 6 h
  Bacteria reducing rate: 2.1 Δ log10 CFU/ml
[2]; 0.5 μg/ml (4 MIC), 24 h
  Bacteria reducing rate: 1.1 Δ log10 CFU/ml
[2]; 1 μg/ml (8 MIC), 1 h
  Bacteria reducing rate: 0.1 Δ log10 CFU/ml
[2]; 1 μg/ml (8 MIC), 3 h
  Bacteria reducing rate: 0.1 Δ log10 CFU/ml
[2]; 1 μg/ml (8 MIC), 6 h
  Bacteria reducing rate: 0.1 Δ log10 CFU/ml
[2]; 1 μg/ml (8 MIC), 24 h
  Bacteria reducing rate: 0.4 Δ log10 CFU/ml
  Viable bacteria count: 6.7 Log10 CFU/ml
[2]; 2 μg/ml (16 MIC), 1 h
  Bacteria reducing rate: 0.0 Δ log10 CFU/ml
[2]; 2 μg/ml (16 MIC), 3 h
  Bacteria reducing rate: −0.1 Δ log10 CFU/ml
[2]; 2 μg/ml (16 MIC), 6 h
  Bacteria reducing rate: −0.9 Δ log10 CFU/ml
[2]; 2 μg/ml (16 MIC), 24 h
  Bacteria reducing rate: −1.7 Δ log10 CFU/ml
  Viable bacteria count: 4.6 Log10 CFU/ml
[2]; 4 μg/ml (32 MIC), 1 h
  Bacteria reducing rate: −0.2 Δ log10 CFU/ml
[2]; 4 μg/ml (32 MIC), 3 h
  Bacteria reducing rate: −0.1 Δ log10 CFU/ml
[2]; 4 μg/ml (32 MIC), 6 h
  Bacteria reducing rate: −1.2 Δ log10 CFU/ml
[2]; 4 μg/ml (32 MIC), 24 h
  Bacteria reducing rate: −3.9 Δ log10 CFU/ml
  Viable bacteria count: 2.4 Log10 CFU/ml
[2]; 8 μg/ml (64 MIC), 1 h
  Bacteria reducing rate: −0.2 Δ log10 CFU/ml
[2]; 8 μg/ml (64 MIC), 3 h
  Bacteria reducing rate: −1.6 Δ log10 CFU/ml
  Viable bacteria count: 4.7 Log10 CFU/ml
[2]; 8 μg/ml (64 MIC), 6 h
  Bacteria reducing rate: −3.7 Δ log10 CFU/ml
  Viable bacteria count: 2.6 Log10 CFU/ml
[2]; 8 μg/ml (64 MIC), 24 h
  Bacteria reducing rate: −5.0 Δ log10 CFU/ml
[3]; Staphylococcus aureus, no 16302, read-out: MIC
  MIC: 0.5 µg/mL
[3]; no 16315
  MIC: 0.5 µg/mL
[4]; Staphylococcus pseudintermedius, no 15401, read-out: MIC
  MIC: 0.125 µg/mL
[4]; no 15410
  MIC: 0.125 µg/mL
[5]
  Concentrations with concentration-dependent bactericidal effect: >= 2 MIC
[6]
  Concentrations with concentration-dependent bactericidal effect: >= 2 MIC
